Measurements published in US9402826B2, “Neuronal pain pathway modulators” (The Trustees of Columbia University in the City of New York, priority 2006, dated 2016).
Where two headings read alike, the source gives them in different places.

How the values were obtained:
[1] = target: T1, PKG (Homo sapiens, UniProt Q13976); assay: PKG inhibition: transfer of gamma-32P from ATP to peptide substrate; type: biochemical
T1 sequence (Q13976 1-671): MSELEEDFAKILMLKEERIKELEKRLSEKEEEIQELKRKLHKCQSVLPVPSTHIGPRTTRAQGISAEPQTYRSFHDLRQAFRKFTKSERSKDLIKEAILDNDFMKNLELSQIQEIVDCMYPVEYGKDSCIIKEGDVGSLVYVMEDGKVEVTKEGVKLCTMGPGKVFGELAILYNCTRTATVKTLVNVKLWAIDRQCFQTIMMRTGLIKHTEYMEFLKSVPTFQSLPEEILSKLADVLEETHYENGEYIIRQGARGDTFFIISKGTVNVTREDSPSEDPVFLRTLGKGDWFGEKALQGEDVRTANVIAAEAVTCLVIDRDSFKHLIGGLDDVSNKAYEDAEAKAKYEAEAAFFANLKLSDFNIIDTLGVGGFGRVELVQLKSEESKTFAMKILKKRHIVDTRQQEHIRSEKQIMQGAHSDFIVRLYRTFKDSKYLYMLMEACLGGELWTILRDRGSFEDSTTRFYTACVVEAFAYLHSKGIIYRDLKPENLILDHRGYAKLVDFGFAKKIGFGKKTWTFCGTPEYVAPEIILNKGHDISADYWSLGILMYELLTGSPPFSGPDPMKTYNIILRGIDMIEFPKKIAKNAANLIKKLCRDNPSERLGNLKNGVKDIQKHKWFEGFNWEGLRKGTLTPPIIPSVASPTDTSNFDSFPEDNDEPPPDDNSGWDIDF

[2] = target: T2, PKA (Homo sapiens, UniProt P17612); assay: PKA inhibition; type: biochemical; conditions: for difference of IC50 for PKA versus PKG: PKA IC50 relative to PKG IC50
[3] = system: rats; assay: Behavioural and motor observation of treated rats; type: in vivo; conditions: rat; eating, sleeping, defecating, micturation, balance, exploring, socialization
Description: Modification of compound 6 to increase affinity and selectivity, and perhaps plasma half-life, as described above, will be important. […] For example, the animals had difficulty in changing from the supine to prone positions. […] The effects lasted for at least 24 hours and disappeared after 3 days.

[4] = system: CFA-induced thermal hyperalgesia in the hindpaws of rats; assay: CFA-induced thermal hyperalgesia, hindpaw withdrawal latency; type: in vivo; conditions: rat; for Effectiveness: 24 hours after CFA injection
Description: Both compounds were further tested for their efficacy in reducing complete Freund's adjuvant (CFA)-induced thermal hyperalgesia in the hindpaws of rats. The hindpaws of rats were first tested for their response to a thermal probe as a baseline reference. Then the right hindpaw was injected with CFA (100 μl). The injected site developed edema and redness, indicating an inflammatory reaction, within 12 hours. […] The rats were then given either compound 6 or 46 at different times after CFA injection via different routes as shown in the tables below. Each hindpaw was then tested for its response to a thermal stimulus on successive days.

[5] = system: rats; conditions: intrathecal, after induction of an inflammatory response, 10 and 60 minutes later; cited from earlier work
[6] = system: PKC isoforms; conditions: Series B, Table 2; read-out: IC50 PKC isoforms from literature; cited from earlier work
[7] = target: T2, PKA; conditions: cited from earlier work
[8] = Activity: IC50 vrs PKG, Series B, 30 μM ATP
[9] = Table 4, read-out: PKA inhibition (IC50)

COCOc1ccc(OC)c(F)c1C(=O)c1ccc(C(=O)OC2CNCC2NC(=O)c2ccc(O)cc2)cc1 (stereo not shown) [Compound B-6]
IC50 [1, 8]: 40 nM
IC50 ([1]; IC50 with PKG, Example 12): 40 nM
IC50 ([1]; PKG activity (IC50), Table 1): 40 nM
IC50 ([1]; PKG inhibition (IC50), Table 4): 40 nM
IC50 ([2]; Example 12, read-out: IC50 with PKA): 950 nM
difference of IC50 for PKA versus PKG [2]: about 20 fold
IC50 [2, 9]: 950 nM
adverse behavioral effects [3]: did not exhibit any adverse behavioral effects
Effectiveness (recovery) ([4]; 3.3 nmol, subcutaneous pump, 60 hours after CFA injection, 5 days later): >90%
Effectiveness (recovery) ([4]; 0.25 μM final CSF conc., intrathecal pump, 72 hours after CFA injection, 10 days): >50%
Effectiveness ([4]; 25 μM final CSF conc., intrathecal pump, 6 days later): >90% 6 days
Effectiveness ([4]; 82.5 μM final CSF conc., intrathecal single injection): No effect
analgesic effects (in words) ([4]; doses and routes tested, preliminary results): analgesic effects comparable to that achieved with the most potent commercially available inhibitor of PKG
effect on thermal hyperalgesia ([4]; single dose injection): failed to reduce thermal hyperalgesia

O=C(N[C@@H]1CNC[C@H]1NC(=O)c1ccc2[nH]ncc2c1)c1ccc(O)cc1 [Compound B-50]
IC50 ([1]; IC50 (PKG), text b321): 70 nM
selectivity over PKA (in words) ([2]; PKG versus PKA): no selectivity over PKA
IC50 ([2]; Table 6, read-out: PKA inhibition (IC50)): 70 nM

O=C(NC1CNCCCC1OC(=O)c1cc(O)c(C(=O)c2c(O)cccc2C(=O)O)c(O)c1)c1ccc(O)cc1 (stereo not shown) [balanol, reference compound]
IC50 ([1]; Table 3, read-out: PKG inhibition (IC50)): 1.6 nM

CCN(CC)CC.Nc1nc2c(nc(Sc3ccc(Cl)cc3)n2[C@@H]2O[C@@H]3COP(O)(=S)O[C@H]3[C@H]2O)c(=O)[nH]1 (stereo partly shown) [Rp-8-[4-chlorophenyl)thio]-cGMPS triethylamine]
effect on acute pain [5]: significant attenuation of acute pain

O=C(NC1CNCC1OC(=O)c1cc(O)c(C(=O)c2c(O)cccc2C(=O)O)c(O)c1)c1ccc(O)cc1 (stereo not shown) [Compound B-2, reference compound]
reduction of PKG inhibition relative to balanol [1]: 5 fold
IC50 [1, 8]: 7 nM
IC50 ([1]; PKG activity (IC50), Table 1): 7 nM
IC50 ([1]; PKG inhibition (IC50), Table 3): 7 nM
difference of IC50 for PKA versus PKG [2]: 3 fold
IC50 [6]: 4 to 33 nM
IC50 ([7]; read-out: IC50 PKA from literature, Series B, Table 2): 70 nM
IC50 ([7]; read-out: PKA activity (IC50), Table 1, from Lai et al. 1997): 4 to 33 nM
IC50 ([7]; read-out: PKA inhibition (IC50), Table 3, same values given as from literature in Table 2): 70 nM

COc1ccc(O)c(C(=O)c2ccc(C(=O)OC3CNCC3NC(=O)c3ccc(O)cc3)cc2)c1F (stereo not shown) [Compound B-7]
IC50 [1, 8]: 40 nM
IC50 ([1]; PKG activity (IC50), Table 1): 40 nM
IC50 ([1]; PKG inhibition (IC50), Table 4): 40 nM
difference of IC50 for PKA versus PKG [2]: approximately the same IC50
IC50 ([2]; Series B, Table 2, read-out: Activity: IC50 vrs PKA): 38 nM
IC50 ([2]; Table 1, read-out: PKA activity (IC50)): 38 nM
IC50 [2, 9]: 40 nM

CCCOc1ccc(OC)c(F)c1C(=O)c1ccc(C(=O)OC2CNCC2NC(=O)c2ccc(O)cc2)cc1 (stereo not shown) [Compound B-21]
IC50 ([1]; PKG inhibition (IC50), Table 4): 200 nM
IC50 [2, 9]: > 10000 nM

O=C(NC1CCCC1OC(=O)c1cc(O)c(C(=O)c2c(O)cccc2C(=O)O)c(O)c1)c1ccc(O)cc1 (stereo not shown) [Compound B-1, reference compound]
IC50 [1, 8]: 7 to 8 nM
IC50 ([1]; PKG activity (IC50), Table 1): 7 to 8 nM
IC50 ([1]; PKG inhibition (IC50), Table 3): 7 nM
difference of IC50 for PKA versus PKG [2]: 3 fold

O=C(Nc1ccccc1)Nc1ccc(C(=O)O[C@@H]2CCC[C@H]2NC(=O)c2ccc(O)cc2)cc1 (relative stereo) [Series A 11]
Activity (ability to inhibit PKG) ([1]; Series A, compounds at 10 μM, 30 μM ATP): no inhibition

O=C(N[C@@H]1CNC[C@H]1NC(=O)c1ccc(O)cc1)c1ccc(O)cc1 [Compound B-48]
PKG inhibitory activity (in words) [1]: moderate PKG inhibitory activity
IC50 ([1]; Table 6, read-out: PKG inhibition (IC50)): ~200 nM

O=C(OCc1ccccc1Cl)c1ccc(-c2ccc(O)cc2)cc1 [Compound 8J]
inhibition of PKG activity ([1]; 10 μM compound, average of two independent experiments): weaker inhibition
inhibitory activity on PKG (in words) ([1]; 1 and 10 micromolar compound (FIGS. 10A-B)): significant inhibitory activity
